# According to patent US9585864B2, “Anticancer formulation” (National Dong Hwa University, priority 2010, dated 2017):
# How the values were obtained:
# [1] = tested on: JNK, AKT, ERK; assay: Western blot of signaling pathway phosphorylation in RG2 cells; format: cell-based, rat; details: 100 μg/ml, treatment for 1 hour
# Method: Finally, signaling pathways involved in z-Bdph-induced Nur77 gene expression were investigated. RG2 cells were treated with Bdph (100 μg/ml) for various time periods (0, 15, 30, 60, and 180 mins).
# [2] = tested on: Nur77 in DBTRG-05NG cells (human GBM cells); assay: Nur77 translocation by immunostaining, fluorescence microscopy; format: cell-based; details: 100 μg/mL, 24 hours
# Method: Whether translocation of Nur77 occurred in response to z-Bdph was examined. DBTRG-05NG cells (human GBM cells) were treated with Bdph (100 μg/mL) for 24 hours, then immunostained with anti-Nur77 antibody followed by corresponding Rhodamine-conjugated anti-IgG secondary antibody. Simultaneously, cells were stained with DAPI to display the nuclei. The fluorescent images were visualized with a fluorescence microscope.
# [3] = tested on: Axl receptor tyrosine kinase (RTK); assay: RT-PCR and Western blot of Axl expression in GBM cells; format: cell-based
# Method: Reverse transcriptase-polymerase chain reaction (RT-PCR) was used to examine the effect of z-Bdph on the gene expression profile in GBM cells to elucidate the possible mechanisms of z-Bdph's inhibition of malignant brain tumor.
# Western Blot assays were also carried out to examine the Axl protein level of the GBM cells in the presence of z-Bdph.
# [4] = tested on: DBTRG-05MG cells (human GBM); assay: Matrigel invasion chamber and PET membrane migration assay; format: cell-based; details: 24 hours
# Method: The invasion of DBTRG-05MG cells was examined using a BioCoat matrigel invasion chamber system (BD Bioscience, Bedford, Mass.). The BD matrigel Matrix is composed of laminin, collagen IV, nidogen/entrctin, and proteoglycan on polyethylene terephthalate (PET) membranes containing 8 μm pores. In the in vitro migration assay, low pore density PET track-etched membrane on Falcon culture insert (BD Bioscience) was applied. The membrane was placed between the upper and lower wells of a Matrigel chamber or Falcon culture inserts. The cells were first resuspended in PRMI 1640 containing 10% fetal bovine serum and seeded into the upper wells of the chamber (50,000 cells per well). After incubating for 24 hours at 37° C., the cells that invaded or migrated through the membrane were stained with Liu stain (Handsel Technologies, Inc., Taipei, Taiwan) and counted under a microscopy. Each experiment was repeated thrice.
# [5] = tested on: Nur77; assay: RT-PCR of orphan receptor Nur77 mRNA expression in RG2 cells; format: cell-based, rat; details: IC50 concentration of z-Bdph, 0, 0.5, 1, 3 and 6 h
# Method: To confirm the results of the oligodeoxynucleotide-based microarray analysis, expression of the orphan receptors NOR-1, Nurr1, and Nur77 was examined in z-Bdph-treated RG2 cells by RT-PCR.
# RG2 cells were incubated with IC50 concentration of z-Bdph for various time periods (0, 0.5, 1, 3, and 6 h). After incubation, cells were collected and total RNA isolated. Expression of GADPH was used as an internal control.
structure (smiles),measurement,setting,value
"CCC/C=C1\OC(=O)c2ccccc21 [z-Bdph, (Z)-n-butylidenephthalide]","phosphorylation of JNK, AKT, ERK",[1],"JNK, AKT, ERK were significantly phosphorylated"
same,translocation of Nur77,[2],Nur77 was translocated from the nucleus to the cytoplasm
same,mRNA expression of Axl receptor tyrosine kinase,[3]; RT-PCR,down-regulated
same,Axl protein level,[3]; Western blot,reduced
same,invasion of DBTRG-05MG cells,[4]; BioCoat matrigel invasion chamber,inhibited migration and invasion of DBTRG-05MG cells in a dose dependent manner
same,migration of DBTRG-05MG cells,[4]; PET track-etched membrane,inhibited migration and invasion of DBTRG-05MG cells in a dose dependent manner
same,mRNA expression of Nur77,[5],induced in the cells in a time-dependent manner
